Source: patent publication US8357671B2, “High affinity Siglec ligands” (priority 2005, dated 2013)
“And” between values parts separate entries of the source, which are not always exact repeats. Identical values can stand only once.

Assays:
mouse CD22 = biological target: T1, mouse CD22 (Mus musculus, UniProt P35329); experiment: ELISA inhibition assay: CD22-Fc chimera binding to immobilized NeuGc-LN; settings: for IC50: inhibition of CD22-Fc binding to immobilized NeuGcα2,6LacNAc, read-out: IC 50 value mCd22; for rIP mCd22 (relative inhibitory potency): relative to NeuGc-LN = 1
T1 construct: made in house
Procedure: (§1) FIG. 1A-B illustrate that sialosides with derivation at position 9 that includes a neutral core and a hydrophobic moiety are potent inhibitors for CD22. Similar inhibitors can be made by derivation at position 5. […] FIG. 1B graphically illustrates competitive inhibition of selected sialoside inhibitors. Inhibitors were added with soluble CD22-Fc chimeras to block the chimera binding to immobilized NeuAcα2-6Galβ1-4GlcNAc (NeuAc-LN, human CD22, hCD22) or NeuGcα2,6Galβ1-4GlcNAc (NeuGc-LN, mouse CD22, mCD22). Data are the average +/−S.D. of triplicate determinations and are representative of two individual assays.
(§2) ELISA inhibition assays: For inhibition assays, high binding 96 well microtiter plates (Corning Costar) were coated with neutravidin by incubation with 50 ul of 1 mg/ml Neutravidin (Pierce Biotechnology) in 50 mM Na bicarbonate pH 9.5 overnight at 4° C. The wells were then washed with PBS and blocked with PBS containing 5 mg/ml BSA for 1 hr at 37° C. Fifty microliters of a selected biotinylated sialoside (0.33 uM) was added to each well, and allowed to bind for 1 hr at room temperature. The sialoside was then allowed to bind for 1 hr at 37° C. and the wells were washed.
(§3) The CD22-Fc chimera employed was produced as described in Blixt et al. (J. Biol. Chem. 278: 31007-19 (2003)) and diluted to 0.1 mg/ml into HBSS (with 5 mg/ml BSA and 1 mM EDTA). An F(ab′)2 Fragment Goat anti-Human IgG (Jackson Immunoresearch) (0.066 mg/ml) was mixed and allowed to complex with Peroxidase conjugated F(AB′)2 Fragment Rabbit anti Goat F(ab′)2 specific (0.010 mg/ml) for 15 min. CD22-Fc (1.5 ml) was added to 1 ml of the pre-complexed solution and allowed to further associate with complexes in that solution for 15 min. The inhibitor of interest was diluted into HBSS. Twenty-five microliters of the inhibitor and 25 ul of the CD22Fc complex were added to each well and the plates were incubated for 30 min at 37° C. The plates were then washed 4 times with 200 ul of HBSS. Wells were developed with 50 ul of 1 mg/ml OPD (Sigma), 0.03% H2O2 in 50 mM phosphate/citrate, pH 5.0. The reaction was stopped with 50 ul of 2.5 M H2SO4 and the optical density at 450 nm (OD450) was measured.

[1] = biological target: T2, cell surface CD22 (hCD22) on Daudi cells (Homo sapiens, UniProt P20273); experiment: Inhibition of NeuAc-LN-PAA probe binding to sialidase-treated Daudi cells; format: cell-based; settings: inhibitor 10, 30, 200 uM
T2 construct: endogenous in cells; host or cells: Daudi cells (sialidase-treated)
T2 sequence (P20273 20-847): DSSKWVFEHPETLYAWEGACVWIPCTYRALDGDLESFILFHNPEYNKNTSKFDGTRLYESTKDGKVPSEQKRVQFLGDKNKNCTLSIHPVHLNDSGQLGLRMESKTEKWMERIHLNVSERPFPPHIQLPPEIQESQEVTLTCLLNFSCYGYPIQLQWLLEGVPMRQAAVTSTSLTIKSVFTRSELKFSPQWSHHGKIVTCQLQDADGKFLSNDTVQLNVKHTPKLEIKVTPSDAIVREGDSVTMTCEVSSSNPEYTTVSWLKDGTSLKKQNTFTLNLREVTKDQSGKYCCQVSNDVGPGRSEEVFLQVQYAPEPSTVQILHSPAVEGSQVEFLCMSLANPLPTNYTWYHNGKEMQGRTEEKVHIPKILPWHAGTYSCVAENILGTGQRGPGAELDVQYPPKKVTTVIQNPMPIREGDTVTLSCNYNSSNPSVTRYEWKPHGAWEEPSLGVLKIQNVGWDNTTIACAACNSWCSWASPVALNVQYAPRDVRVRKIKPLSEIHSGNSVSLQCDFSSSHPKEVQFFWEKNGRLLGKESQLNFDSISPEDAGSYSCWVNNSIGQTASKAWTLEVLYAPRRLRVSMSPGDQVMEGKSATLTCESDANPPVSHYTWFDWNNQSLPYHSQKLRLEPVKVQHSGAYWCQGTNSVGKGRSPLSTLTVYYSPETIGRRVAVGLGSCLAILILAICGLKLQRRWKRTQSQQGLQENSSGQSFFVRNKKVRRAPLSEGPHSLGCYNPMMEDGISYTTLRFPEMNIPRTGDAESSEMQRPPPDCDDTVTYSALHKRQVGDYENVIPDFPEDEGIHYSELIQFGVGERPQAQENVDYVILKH
Procedure: FIG. 2A-B illustrate inhibition of multivalent sialoside probe binding to cell surface CD22 by potent biphenyl (BP) derivatives. FIG. 2A provides the results for murine splenocytes. Murine splenocytes were mock-treated (grey shaded peak) or actually treated with A. ureafaciens sialidase to cleave sialic acid-containing glycans from cell surfaces and thereby ‘unmask’ surface CD22. The cells were then incubated with NeuGc-LN-PAA alone (rightmost Black line, where PAA refers to a polyacrylamide carrier) or in the presence of 5 uM (light line to the right of center), 200 uM (central grey line) or 2 mM (leftmost dark grey line) of the indicated inhibitor for 1.5 h on ice, then washed. Bound probe was detected with streptavidin-PE, and B cells stained with anti-B220. Data are for B220+ cells only. FIG. 2B provides results for Daudi Cells. […] Bound probe was detected with streptavidin-PE and measured by flow cytometry. […]
Inhibition of Probe-Binding to B cells by Sialic Acid Inhibitors. […] These “cis” glycan ligands can mask binding of sialic acid ligands provided in “trans.” After treatment with sialidase, inhibition of B cell binding by monovalent BPC-NeuAc-LN and BPA-NeuGc-LN was detected for multivalent polyacrylamide (PAA) sialoside probes derivatized with NeuAc-LN (hCD22) or NeuGc-LN (mCD22) (FIG. 2).

human CD22 = biological target: T3, human CD22 (Homo sapiens, UniProt P20273); experiment: ELISA inhibition assay: CD22-Fc chimera binding to immobilized NeuAc-LN; settings: for IC50: inhibition of CD22-Fc binding to immobilized NeuAcα2,6LacNAc, read-out: IC 50 value hCd22; for rIP hCd22 (relative inhibitory potency): relative to NeuAc-LN = 1
T3 construct: made in house
Procedure: as §1, §2, §3

[2] = biological target: T4, CD22 on asialo K20 cells (BJAB subclone) (Homo sapiens, UniProt P20273); experiment: Self-assembled IgM complex binding to asialo cells
T4 sequence (P20273 20-847): T2 sequence (P20273 20-847)
Procedure: Following washing, bound IgM was detected with FITC-labeled anti-Ig and read by flow cytometry. […] Free NP, the heterobifunctional ligand, and the IgM anti-NP were all added to BJAB cells and allowed to incubate on ice before washing. Bound IgM was detected as described for FIG. 5B. […] After binding of a self-assembled complex of NP-BPC and Alexa Fluor-labeled anti-NP IgM antibodies to BJAB cells on ice, the cells were washed and allowed to internalize the complex for the indicated period of time. After a brief acid wash to remove any surface IgM, internalized IgM was quantified by flow cytometry.
Cell Binding. BJAB cells, incubated with or without exogenous sialic acid (4 mM) for 2 days, were resuspended in HBSS/BSA at a density of 1×10^6 cells/ml and the varying amounts of IgM and the BPC-NP construct shown in FIG. 7 were added to the cells and allowed to bind for 1 hr on ice. Cells were then washed with 1 ml of HBSS/BSA and then incubated with FITC-labeled anti-IgM for 30 min on ice. After washing again, the cells were read by flow cytometry.
To further evaluate the ability for the IgM complex to bind to CD22 on B cells, cells deficient in cell-surface sialic acid were used.

[3] = biological target: T5, CD22 on sialylated (native) BJAB cells (Homo sapiens, UniProt P20273); experiment: Self-assembled IgM complex binding to sialylated BJAB cells; format: cell-based; settings: high concentration of cis ligands
T5 construct: endogenous in cells; host or cells: BJAB cells (incl. K20 subclone)
T5 sequence (P20273 20-847): T2 sequence (P20273 20-847)

[4] = biological target: T6, CD22Fc chimeras (hCD22Fc) (Homo sapiens, UniProt P20273); experiment: ELISA-type assay of IgM/NP-BPC/CD22 complex formation; format: binding
T6 construct: made in house; host or cells: COS cells
Procedure: FIG. 7A-7C illustrate a self-assembling B cell targeting complex as one aspect of the invention. […] CD22-Fc chimeras were immobilized onto protein A coated wells. After washing, the indicated amount of either NP, or NP-BPC was added along with the anti-NP IgM was added and allowed to bind for 30 min at room temperature. After washing, bound IgM was detected with HRP-conjugated anti-IgM and developed with OPD. Data are the average ±S.D. of triplicates, and are representative of 3 independent experiments.
ELISA-Type Assay. High Binding microtiter plates were coated with neutravidin (1 ug/50 ul/well in Na Bicarbonate pH 9.5) overnight at 4° C., then washed with 200 ul of HBSS/BSA. Culture supernatants containing hCD22Fc chimera were incubated in the wells for 2 h at room temperature. Wells were then washed and a mixture of IgM antibodies that recognize nitrophenyl groups (anti-NP antibodies) and 50 ul of varying concentrations of the BPC-Siaα2-6LN heterobifunctional ligand were added. The plates were allowed to bind for 30 min. […]
CD22Fc chimeras were immobilized onto microtiter plates and overlaid with mixtures of IgM anti-NP and NP or NP-BPC. Following washing, bound IgM complex was detected with HRP-conjugated anti-Ig antibodies. CD22-dependent binding of the complex was detected, with maximal IgM complex binding achieved when using less than 200 nM NP-BPC.

Siglec 10 = experiment: PAA probe binding to Siglec 10; settings: result in words
From the text: Building on the binding studies described above, polyacrylamide (PAA) probes containing the BPA-NeuGc-LN or BPC-NeuAc-LN sialosides were synthesized and tested for binding to CD22. […] Siglec 10 another B cell lectin, however, binds well to the NeuGc-LN glycan, but in contrast to CD22, only weakly to the high molecular weight BPA derivative.

BJAB cells = experiment: Measurement of probe internalization; format: cell-based, human; settings: caveolin inhibitor
Procedure: To generate the data shown in FIG. 5A, BJAB cells grown in the presence of sera and supplemented with NeuAc were incubated with the high molecular weight BPC-NeuAc-LN-PAA (light and heavy lines) or LN-PAA (Shaded) probes for 1.5 h on ice, followed by CyChrome labeled streptavidin for 45 min on ice. After washing, the cells were then incubated at 37° C. for the indicated period of time. Following this incubation, cells were washed with HBSS/BSA (shaded peak and heavy line) or RPMI pH 2.5 (light line). Bound or internalized probe was detected by flow cytometry. To generate the data shown in FIG. 5B, cells were washed with RPMI:Water (1/1) and then incubated for 1 hr in media with or without potassium. After pre-chilling on ice, cells were incubated in the corresponding media with the BPC-NeuAc-LN-PAA probe and then internalization was measured as above. Data are the average of two independent experiments.
Measurement of probe internalization. BJAB cells (2×10^6 cell/ml) were labeled with the PAA probe and streptavidin as above. Following staining, aliquots of 100 ul of the cell suspension were placed on ice or at 37° C. for selected periods of time. […]
Similarly, the ability for B cells to endocytose the PAA probes was determined. […] The remaining fluorescence as measured by flow cytometry as a measure of the amount of internalized probe.

T3 sequence (P20273 with tags, fused parts or gaps limits assumed): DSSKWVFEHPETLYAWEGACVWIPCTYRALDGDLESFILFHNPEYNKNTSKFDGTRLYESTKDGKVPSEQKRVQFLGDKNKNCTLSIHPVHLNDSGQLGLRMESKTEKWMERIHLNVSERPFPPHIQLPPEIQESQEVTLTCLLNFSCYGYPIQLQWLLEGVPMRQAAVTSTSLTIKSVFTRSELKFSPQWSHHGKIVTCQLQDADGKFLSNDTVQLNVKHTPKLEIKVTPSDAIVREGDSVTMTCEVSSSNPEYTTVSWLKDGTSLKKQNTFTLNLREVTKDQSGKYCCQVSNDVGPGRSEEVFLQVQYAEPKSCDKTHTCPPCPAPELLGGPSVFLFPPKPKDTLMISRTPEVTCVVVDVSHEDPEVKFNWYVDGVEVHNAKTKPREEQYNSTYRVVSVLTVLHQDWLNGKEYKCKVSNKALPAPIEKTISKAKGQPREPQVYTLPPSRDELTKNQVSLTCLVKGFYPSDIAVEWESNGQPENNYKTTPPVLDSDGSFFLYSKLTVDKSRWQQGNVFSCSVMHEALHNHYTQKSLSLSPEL
T1 sequence (P35329 with tags, fused parts or gaps limits assumed): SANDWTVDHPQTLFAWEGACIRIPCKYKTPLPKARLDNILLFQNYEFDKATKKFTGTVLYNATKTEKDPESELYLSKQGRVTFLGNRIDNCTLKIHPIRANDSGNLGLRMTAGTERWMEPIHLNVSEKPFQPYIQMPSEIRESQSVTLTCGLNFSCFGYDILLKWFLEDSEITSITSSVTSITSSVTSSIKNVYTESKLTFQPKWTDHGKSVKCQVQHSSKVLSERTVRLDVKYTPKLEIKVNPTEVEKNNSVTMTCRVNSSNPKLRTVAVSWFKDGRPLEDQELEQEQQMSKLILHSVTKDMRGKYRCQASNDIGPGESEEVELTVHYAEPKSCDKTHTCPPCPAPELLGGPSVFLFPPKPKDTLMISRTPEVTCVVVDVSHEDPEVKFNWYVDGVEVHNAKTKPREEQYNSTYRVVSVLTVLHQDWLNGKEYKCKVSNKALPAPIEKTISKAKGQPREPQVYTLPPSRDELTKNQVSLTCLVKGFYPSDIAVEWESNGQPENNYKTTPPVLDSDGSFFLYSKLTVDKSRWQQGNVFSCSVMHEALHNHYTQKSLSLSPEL
T6 sequence (P20273 with tags, fused parts or gaps limits assumed): as the sequence (P20273 with tags, fused parts or gaps limits assumed) above

Molecule	IC50 (mouse CD22) [µM]	rIP mCd22 (relative inhibitory potency) (mouse CD22)	inhibition of NeuAc-LN-PAA probe binding [1]	IC50 (human CD22)	rIP hCd22 (relative inhibitory potency) (human CD22)	inhibition of Siglec binding to immobilized sialoside (human CD22; result in words)	binding to Siglec 10 (Siglec 10)	concentration at maximal binding of the complex [2] [µM]	binding to CD22 on sialylated BJAB cells [3]	concentration for maximal IgM complex binding [4]	effect on probe internalization (BJAB cells)
9-biphenylcarbonyl (BPC)-Neu5Acα2-6Galβ1-4GlcNAc [BPC-NeuAcLN]	242	0.91	complete inhibition	2 µM and 2.2 µM	100						
CC(=O)NC1C(O)CC(O)(C(=O)O)OC1C(O)C(O)CNC(=O)c1ccc(-c2ccccc2)cc1 [BPC-NeuAc, 5-Acetamido-9-[(1,1′-biphenyl)-4-carboxamido]-3,5,9-trideoxy-D-glycero-D-galacto-2-nonulo-pyranosyl-onate]	1500	0.15		35 µM	6.3						
CC(=O)N[C@H]1[C@H](OCCNC(=O)Cc2ccc(O)c([N+](=O)[O-])c2)O[C@H](CO)[C@@H](O[C@@H]2O[C@H](CO[C@]3(C(=O)O)C[C@H](O)[C@@H](NC(C)=O)[C@H]([C@H](O)[C@H](O)CNC(=O)c4ccc(-c5ccccc5)cc4)O3)[C@H](O)[C@H](O)[C@H]2O)[C@@H]1O [NP-BPC, [(4′-hydroxyl-3′-nitrophenylacetamido)-ethyl-β-]-[[5-Acetamido-9-[(1,1′-biphenyl)-4-carboxamido]-3,5,9,trideoxy-D-glycero-D-galacto-2-nonulo-pyranosyl-onate-α2-6-O-D-galactopyranosyl-β1-4]]-D-2-acetamido-2-deoxy-glucopyranoside]								0.16	bound efficiently	less than 200 nM	
C[C@@H]1[C@H](O)[C@@H](C)/C=C/C=C/CC/C=C/C=C/C=C/C=C/C(O[C@H]2O[C@H](C)[C@@H](O)[C@H](N)[C@@H]2O)CC2O[C@](O)(CC(O)C(O)CCC(O)CC(O)CC(O)CC(=O)O[C@H]1C)CC(O)C2C(=O)O (stereo partly drawn) [nystatin]											did not inhibit

Now from value to molecule, other results behind:

IC50 (mouse CD22) [µM]	rIP mCd22 (relative inhibitory potency) (mouse CD22)	inhibition of NeuAc-LN-PAA probe binding [1]	IC50 (human CD22)	rIP hCd22 (relative inhibitory potency) (human CD22)	inhibition of Siglec binding to immobilized sialoside (human CD22; result in words)	binding to Siglec 10 (Siglec 10)	Molecule	concentration at maximal binding of the complex [2] [µM]	binding to CD22 on sialylated BJAB cells [3]	concentration for maximal IgM complex binding [4]	effect on probe internalization (BJAB cells)
> 2000	<0.1		> 2000 µM	<0.1	no inhibition		CC(=O)N[C@H]1[C@H]([C@H](O)[C@H](O)CO)OC(O)(C(=O)O)C[C@@H]1O (stereo partly drawn) [NeuAc, N-acetylneuraminic acid]				
> 2000	<0.1		200 µM and 220 µM	1			CC(=O)N[C@@H]1[C@@H](O)[C@H](O[C@@H]2O[C@H](CO[C@]3(C(=O)O)C[C@H](O)[C@@H](NC(C)=O)[C@H]([C@H](O)[C@H](O)CO)O3)[C@H](O)[C@H](O)[C@H]2O)[C@@H](CO)O[C@H]1O [NeuAc-LN, NeuAcα2-6Galβ1-4GlcNAc]				
221	1		260 µM	0.85		binds well	CC(=O)NC1C(O)OC(CO)C(OC2OC(COC3(C(=O)O)CC(O)C(NC(=O)CO)C(C(O)C(O)CO)O3)C(O)C(O)C2O)C1O (stereo not drawn) [NeuGc-LN, NeuGcα2,6Galβ1-4GlcNAc]				
